The text below walks through data of US20130210846A1, “USE OF NOVEL PAN-CDK INHIBITORS FOR TREATING TUMORS” (BAYER INTELLECTUAL PROPERTY GMBH, priority 2010, published 2013).

One test deals with A375. The test can be described thus: Proliferation assay A375. The format is cell-based. As to conditions: Homo sapiens, A-375, 96 h; A375, skin: melanoma; 4 days, crystal violet. The protocol:
Cultivated human tumor cells (originally obtained from ATCC, HeLa-MaTu and HeLa-MaTu-ADR, originally obtained from Epo GmbH, Berlin, Germany) were plated at a density of 1000 to 5000 cells/measuring point, depending on the growth rate of the cell line, in a 96-well multititer plate in 200 μl of growth medium (DMEM/HAMS F12, 2 mM L-glutamine, 10% fetal calf serum). After 24 hours the cells of one plate (zero-point plate) were stained with crystal violet (see below), whereas the medium of the other plates was replaced with fresh culture medium (200 μl), to which the test substances had been added at various concentrations (0 μM, and in the range 0.01-30 μM; the final concentration of the solvent dimethyl sulfoxide was 0.5%). The cells were incubated for 4 days in the presence of the test substances. Cellular proliferation was determined by staining the cells with crystal violet: the cells were fixed by adding 20 μl/measuring point of an 11% glutaraldehyde solution for 15 min at room temperature. […] The extinction was determined photometrically at a wavelength of 595 nm. The percentage change in cell growth was calculated by standardization of the measured values to the extinction values of the zero-point plate (=0%) and the extinction of the untreated (0 μM) cells (=100%). […] The IC50 values were determined by means of a 4-parameter fit using the company's own software. […]

Test [1] concerns NCI-H146 human small-cell lung tumor cells. In words: NCI-H146 human small-cell lung tumor model. The format is in vivo, female NMRI nude mice. From the text: (§1) Tumor cells grown in cell culture were implanted subcutaneously in the flank of female or male NMRI nude mice. The treatment was started as soon as the tumors had grown to a size of approx. 20 mm^2 The study was ended as soon as the tumors in one of the groups reached a size of approx. 150 mm^2.
(§2) Vehicle group: treatment with solubilizer (40% PEG400/60% water)
(§3) The studies were designed for determining the initial response of the human tumor model to the treatment with the Exemplary compound 2-SI-2. Tumor growth inhibition in percent (TGI) was either calculated at the end of the studies from the tumor weights (TGITW) using the formula 100×[1−(tumor weight of the treatment group/tumor weight of the vehicle group)], or on the day the vehicle group had to be ended from the tumor areas (TGITA) using the formula 100×[1−(tumor area of the treatment group on the day of the measurement−tumor area of the treatment group prior to treatment)/(tumor area of the vehicle group on the day of the measurement−tumor area of the vehicle group prior to treatment)]. In the case of a tumor growth inhibition of more than 50%, the treatment was considered to have been effective.
Efficacy in the NCI-H146 human small-cell lung tumor model.
NCI-H146 human small-cell lung tumor cells implanted into female NMRI nude mice. […]

For test [2], the system named is NCI-H526 human small-cell lung tumor cells. In words: NCI-H526 human small-cell lung tumor model. The format is in vivo, female NMRI nude mice.
Excerpt: as §1, §2, §3
Efficacy in the NCI-H526 human small-cell lung tumor model.
NCI-H526 human small-cell lung tumor cells implanted into female NMRI nude mice.
• a) 0.20 mg/ml of Example 2-SI-2 in 40% (v/v) PEG 400 in water • b) 0.20 mg/ml of Example 2-SI-2 in 40% (v/v) PEG 400 in water • c) 0.15 mg/ml of Example 2-SI-2 in 40% (v/v) PEG 400 in water • d) 0.17 mg/ml of Example 2-SI-2 in 40% (v/v) PEG 400 in water
• a) 2.0 mg/kg (6.0 mg/m^2), 1× per day. • b) 2.0 mg/kg (6.0 mg/m^2), 2× per day on 2 successive days, followed by 5 treatment-free days. • c) 1.5 mg/kg (4.5 mg/m^2), 2× per day on 3 successive days, followed by 4 treatment-free days. • d) 1.7 mg/kg (5.1 mg/m^2), 2× per day on 3 successive days, followed by 4 treatment-free days.

A further test has as its system HeLa-MaTu. In words: Proliferation assay HeLa-MaTu. Type of test: cell-based, human. Conditions: Homo sapiens, 96 h, cervix carcinoma, 4 days, crystal violet. The gist of the method:
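Seed 1000–5000 cells/well, 24 h attach; fix zero-point plate. Replace medium with compound (0.01–30 μM, 0.5% DMSO), incubate 4 d. Glutaraldehyde fix, crystal violet stain, acetic acid elution, read 595 nm; IC50 by 4-parameter fit.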

A word on the IC50: it is the concentration that gives 50% inhibition. Read a high IC50 as weaker potency. In the test on A375, `C[C@@H](O)[C@@H](C)Oc1nc(Nc2ccc(S(C)(=N)=O)cc2)ncc1C(F)(F)F` (single isomer, unassigned) [Example 2-SI-2] yielded a half-inhibitory concentration (IC50) of 15 nM.
As to `C[C@@H](O)[C@@H](C)Oc1nc(Nc2ccc(S(C)(=N)=O)cc2)ncc1C(F)(F)F` (mixture of isomers) [Example 2-SI-2, (RS)—S-(4-{[4-{[(1R,2R)-2-Hydroxy-1-methylpropyl]oxy}-5-(trifluoromethyl)pyrimidin-2-yl]-amino}phenyl)-S-methylsulfoximide], the “TGITW (tumor growth inhibition from tumor weights)” value in test [1] (NCI-H146; a) 2.0 mg/kg oral 1× per day) is given as 95%; in test [1] (NCI-H146; b) 2.0 mg/kg oral 2× per day on 2 successive days, followed by 5 treatment-free days), 82%; in test [2] (NCI-H526; a) 2.0 mg/kg oral 1× per day) it was 98%; in test [2] (NCI-H526; b) 2.0 mg/kg oral 2× per day on 2 successive days, followed by 5 treatment-free days), 72%; in test [2] (NCI-H526; c) 1.5 mg/kg oral 2× per day on 3 successive days, followed by 4 treatment-free days) it was 79%; in test [2] (NCI-H526; d) 1.7 mg/kg oral 2× per day on 3 successive days, followed by 4 treatment-free days), 88%.
For `C[C@@H](O)[C@@H](C)Nc1nc(Nc2ccc(S(=N)(=O)C3CC3)cc2)ncc1C(F)(F)F` (mixture of isomers) [Example 4-SI-1, (RS)—S-Cyclopropyl-S-(4-{[4-{[(1R,2R)-2-hydroxy-1-methylpropyl]amino}-5-(trifluoromethyl)-pyrimidin-2-yl]amino}phenyl)sulfoximide], in the test with HeLa-MaTu, the concentration for half-maximal inhibition (IC50) worked out at 10 nM.
